Results published in the NIST ThermoML archive (doi:10.1021/je0340248).

Test: xn = mol fraction of the nth substance listed
Details: 101 kPa, Liquid

CC(O)CO (stereo not given) [1,2-propanediol] + CCCCOC(C)=O
Details	mass density, 298.15 K [kg/m3]	mass density, 303.15 K [kg/m3]	mass density, 308.15 K [kg/m3]	mass density, 313.15 K [kg/m3]	speed of sound, 298.15 K [m/s]	speed of sound, 308.15 K [m/s]	viscosity, 298.15 K [mPa·s]	viscosity, 308.15 K [mPa·s]
x2 = 0.0445	1020.01	1016.1	1012.28	1008.28	1467	1429	31.87	18.51
x2 = 0.1493	993.58	989.44	985.19	980.98	1407	1372	16.1	10.19
x2 = 0.2487	972.28	968.01	963.42	959.09	1355	1322	8.935	6.083
x2 = 0.3511	953.32	948.95	944.08	939.65	1310	1280	5.175	3.762
x2 = 0.446	937.92	933.47	928.39	923.85	1276	1246	3.295	2.523
x2 = 0.4973	930.34	925.83	920.66	916.07	1260	1230	2.638	2.071
x2 = 0.5491	923.15	918.58	913.33	908.68	1247	1217	2.141	1.719
x2 = 0.6504	910.32	905.62	900.23	895.46	1226	1194	1.489	1.241
x2 = 0.7495	899.15	894.34	888.84	883.97	1210	1178	1.106	0.947
x2 = 0.8489	889.19	884.29	878.67	873.72	1200	1165	0.87	0.759
x2 = 0.946	880.55	875.62	869.86	864.9	1194	1155	0.727	0.64

CC(O)CO (stereo not given) [1,2-propanediol] + CCOC(C)=O
Details	mass density, 298.15 K [kg/m3]	mass density, 303.15 K [kg/m3]	mass density, 308.15 K [kg/m3]	mass density, 313.15 K [kg/m3]	speed of sound, 298.15 K [m/s]	speed of sound, 308.15 K [m/s]	viscosity, 298.15 K [mPa·s]	viscosity, 308.15 K [mPa·s]
x2 = 0.0451	1024.21	1020.33	1016.53	1012.46	1463	1429	32.32	19.38
x2 = 0.1493	1005.58	1001.36	997.21	992.76	1401	1371	16.84	11.71
x2 = 0.2515	988.63	984.09	979.68	974.9	1343	1317	9.278	7.28
x2 = 0.3514	973.2	968.36	963.71	958.63	1294	1268	5.396	4.653
x2 = 0.4393	960.46	955.37	950.52	945.17	1255	1229	3.463	3.184
x2 = 0.5	952.1	946.85	941.84	936.31	1232	1205	2.597	2.469
x2 = 0.5497	945.49	940.12	934.99	929.3	1215	1186	2.075	2.014
x2 = 0.6505	932.74	927.13	921.75	915.78	1186	1153	1.357	1.351
x2 = 0.7495	921.01	915.21	909.59	903.37	1164	1128	0.93	0.928
x2 = 0.8499	909.87	903.92	898.1	891.68	1149	1109	0.661	0.645
x2 = 0.9487	899.61	893.57	887.61	881.09	1140	1098	0.491	0.459

CC(O)CO (stereo not given) [1,2-propanediol] + COC(C)=O
Details	mass density, 298.15 K [kg/m3]	mass density, 303.15 K [kg/m3]	mass density, 308.15 K [kg/m3]	mass density, 313.15 K [kg/m3]	speed of sound, 298.15 K [m/s]	speed of sound, 308.15 K [m/s]	viscosity, 298.15 K [mPa·s]	viscosity, 308.15 K [mPa·s]
x2 = 0.0465	1027.72	1023.69	1020.09	1015.96	1472	1434	34.29	19.21
x2 = 0.1493	1016.8	1012.28	1008.63	1004.03	1429	1391	20.44	11.62
x2 = 0.251	1006.23	1001.34	997.58	992.61	1388	1350	12.35	7.189
x2 = 0.3512	995.96	990.75	986.86	981.59	1350	1313	7.576	4.553
x2 = 0.4412	986.79	981.3	977.29	971.76	1318	1281	4.915	3.063
x2 = 0.4906	981.76	976.11	972.05	966.37	1301	1264	3.887	2.478
x2 = 0.5499	975.7	969.85	965.73	959.87	1281	1244	2.939	1.932
x2 = 0.6483	965.55	959.34	955.15	949	1249	1211	1.859	1.294
x2 = 0.7483	955.01	948.45	944.2	937.77	1218	1178	1.176	0.875
x2 = 0.8499	943.97	937.1	932.79	926.1	1189	1147	0.744	0.598
x2 = 0.9447	933.26	926.21	921.8	914.96	1164	1119	0.489	0.425

CC(=O)OCCC(C)C [3-methylbutyl ethanoate] + CC(O)CO
Details	mass density, 298.15 K [kg/m3]	mass density, 303.15 K [kg/m3]	mass density, 308.15 K [kg/m3]	mass density, 313.15 K [kg/m3]	speed of sound, 298.15 K [m/s]	speed of sound, 308.15 K [m/s]	viscosity, 298.15 K [mPa·s]	viscosity, 308.15 K [mPa·s]
x1 = 0.0455	1017.21	1013.29	1009.48	1005.69	1460	1425	31.61	18.4
x1 = 0.1457	988	983.78	979.64	976.02	1398	1369	16.42	10.43
x1 = 0.2483	963.53	959.11	954.73	951.27	1346	1320	8.962	6.168
x1 = 0.3508	943.13	938.57	934.01	930.68	1304	1281	5.224	3.864
x1 = 0.452	926.02	921.33	916.63	913.4	1270	1248	3.269	2.574
x1 = 0.4959	919.36	914.62	909.86	906.68	1258	1235	2.721	2.196
x1 = 0.5551	911.01	906.21	901.38	898.24	1243	1220	2.165	1.802
x1 = 0.6523	898.71	893.81	888.88	885.8	1223	1199	1.56	1.357
x1 = 0.7497	887.92	882.93	877.91	874.87	1211	1182	1.191	1.075
x1 = 0.8495	878.28	873.2	868.1	865.12	1202	1169	0.961	0.893
x1 = 0.9426	870.47	865.34	860.17	857.24	1197	1160	0.831	0.788

OCCOCCO [diethylene glycol] + CCOC(C)=O
Details	mass density, 298.15 K [kg/m3]	mass density, 303.15 K [kg/m3]	mass density, 308.15 K [kg/m3]	mass density, 313.15 K [kg/m3]	speed of sound, 298.15 K [m/s]	speed of sound, 308.15 K [m/s]	viscosity, 298.15 K [mPa·s]	viscosity, 308.15 K [mPa·s]
x2 = 0.0441	1103.89	1100.06	1096.4	1092.83	1557	1527	26.54	14.6
x2 = 0.1491	1081.32	1077.52	1073.43	1069.24	1501	1467	19.33	10.14
x2 = 0.2504	1059.83	1055.84	1051.57	1047.06	1444	1410	13.79	7.076
x2 = 0.3491	1039	1034.73	1030.34	1025.66	1393	1358	9.631	4.946
x2 = 0.4487	1017.94	1013.34	1008.79	1004.01	1346	1311	6.504	3.42
x2 = 0.5011	1006.8	1002.03	997.36	992.53	1322	1287	5.226	2.808
x2 = 0.5485	996.65	991.74	986.94	982.07	1301	1267	4.257	2.345
x2 = 0.6492	974.85	969.64	964.5	959.48	1261	1226	2.692	1.591
x2 = 0.7505	952.44	946.98	941.47	936.2	1223	1188	1.645	1.068
x2 = 0.8492	930.05	924.36	918.52	912.88	1189	1151	0.988	0.719
x2 = 0.9445	907.81	901.89	895.89	889.73	1157	1116	0.587	0.487
